Data reported in patent publication US11566007B2, “Ras inhibitors” (Revolution Medicines, Inc., priority 2019, dated 2023).
Where “and” joins values, the source holds several entries; their conditions need not be identical. Identical values can stand only once. Like-named read-outs stand apart in the source and are kept apart here.

Key:
[1] = test system: NCI-H358 cells (K-Ras G12C); experiment: Potency assay: pERK in NCI-H358 cells; type: cell-based, human; details: H358 KRAS G12C, read-out: pERK EC50
Method in brief: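 Inhibition of cellular pERK after a 4 h treatment, detected by AlphaLISA or In-Cell Western. IC50 from a four-parameter concentration-response fit.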

K-Ras G12C = K-Ras G12C (Homo sapiens (Human), UniProt P01116+P62937, G12C); experiment: Ras-Raf (BRAF RBD) disruption / FRET / MOA assay, KRAS G12C; type: biochemical; details: KRAS G12C; Ras-Raf disruption/FRET/MOA assay; read-out: IC50* KRAS G12C FRET data
Method in brief: (§1)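 TR-FRET read-out: a drop in ratio relative to DMSO wells marks disruption of the Ras:RAF complex, reported as IC50. Compounds (3-fold series, 10 points, top 30 μM final) incubated 3 h at 25° C before Eu-anti-His 10 nM and APC-anti-GST 50 nM, 1.5 h more.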

KRAS G12S = KRAS G12S (Homo sapiens (Human), UniProt P01116+P62937, G12S); experiment: Ras-Raf (BRAF RBD) disruption / FRET / MOA assay, KRAS G12S; type: biochemical; details: Ras-Raf disruption/FRET/MOA assay; class symbols; read-out: KRAS G12S FRET data IC50
Method in brief: as §1

KRAS WT = KRAS WT (Homo sapiens (Human), UniProt P01116+P62937); experiment: Ras-Raf (BRAF RBD) disruption / FRET / MOA assay, KRAS WT; type: biochemical; details: read-out: IC50* KRAS WT FRET data
Method in brief: as §1

KRAS G13D = KRAS G13D (Homo sapiens (Human), UniProt P01116+P62937, G13D); experiment: Ras-Raf (BRAF RBD) disruption / FRET / MOA assay, KRAS G13D; type: biochemical; details: read-out: IC50* KRAS G13D FRET data
Method in brief: as §1

KRAS Q61H = KRAS Q61H (Homo sapiens (Human), UniProt P01116+P62937, Q61H); experiment: Ras-Raf (BRAF RBD) disruption / FRET / MOA assay, KRAS Q61H; type: biochemical; details: Ras-Raf disruption/FRET/MOA assay; class symbols; read-out: KRAS Q61H FRET data IC50
Method in brief: (§2)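 Compounds were tested as a 10-point 3-fold dilution series from 30 μM final for their ability to drive ternary complex formation between nucleotide-loaded Ras and cyclophilin A, displacing the BRAF RBD. After 3 h at 25° C., anti-His Eu-W1024 (10 nM) and anti-GST allophycocyanin (50 nM) were added for 1.5 h. A TR-FRET ratio decrease versus DMSO gave IC50.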

NRAS Q61K = NRAS Q61K (Homo sapiens (Human), UniProt P01111+P62937, Q61K); experiment: Ras-Raf (BRAF RBD) disruption / FRET / MOA assay, NRAS Q61K; type: biochemical; details: NRAS Q61K; Ras-Raf disruption/FRET/MOA assay; read-out: IC50* NRAS Q61K FRET data
Method in brief: as §2

Sequence of KRAS G12S (P01116-2 other isoform, or with tags, fused parts or gaps G12S): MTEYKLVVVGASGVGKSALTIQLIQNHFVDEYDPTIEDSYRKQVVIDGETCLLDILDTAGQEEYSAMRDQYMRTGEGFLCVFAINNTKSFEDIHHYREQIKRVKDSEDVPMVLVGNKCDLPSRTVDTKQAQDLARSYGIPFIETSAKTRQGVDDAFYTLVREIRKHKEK
Sequence of KRAS G12S (P62937 whole entry): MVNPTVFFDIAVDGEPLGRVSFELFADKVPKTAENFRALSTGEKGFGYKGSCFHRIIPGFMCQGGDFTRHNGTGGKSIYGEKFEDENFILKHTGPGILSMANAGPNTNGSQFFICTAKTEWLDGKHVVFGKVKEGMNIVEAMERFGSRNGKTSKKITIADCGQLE
Sequence of K-Ras G12C (P01116-2 other isoform, or with tags, fused parts or gaps G12C): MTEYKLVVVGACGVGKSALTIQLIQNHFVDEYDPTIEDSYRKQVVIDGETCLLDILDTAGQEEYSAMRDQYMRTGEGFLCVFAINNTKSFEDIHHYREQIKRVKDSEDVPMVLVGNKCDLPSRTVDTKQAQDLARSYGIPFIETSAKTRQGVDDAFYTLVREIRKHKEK
Sequence of K-Ras G12C (P62937 whole entry): as the sequence (P62937 whole entry) above
Sequence of KRAS WT (P01116-2 other isoform, or with tags, fused parts or gaps): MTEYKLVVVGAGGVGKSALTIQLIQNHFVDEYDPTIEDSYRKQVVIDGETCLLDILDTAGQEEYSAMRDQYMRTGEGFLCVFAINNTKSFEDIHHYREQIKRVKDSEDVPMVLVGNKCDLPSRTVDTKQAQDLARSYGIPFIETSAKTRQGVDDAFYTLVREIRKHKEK
Sequence of KRAS WT (P62937 whole entry): as the sequence (P62937 whole entry) above
Sequence of KRAS Q61H (P01116-2 other isoform, or with tags, fused parts or gaps Q61H): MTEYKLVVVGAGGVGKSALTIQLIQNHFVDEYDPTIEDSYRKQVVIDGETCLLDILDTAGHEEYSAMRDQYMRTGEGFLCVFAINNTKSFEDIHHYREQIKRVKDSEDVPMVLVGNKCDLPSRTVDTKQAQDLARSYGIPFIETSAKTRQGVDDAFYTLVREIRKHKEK
Sequence of KRAS Q61H (P62937 whole entry): as the sequence (P62937 whole entry) above
Sequence of KRAS G13D (P01116-2 other isoform, or with tags, fused parts or gaps G13D): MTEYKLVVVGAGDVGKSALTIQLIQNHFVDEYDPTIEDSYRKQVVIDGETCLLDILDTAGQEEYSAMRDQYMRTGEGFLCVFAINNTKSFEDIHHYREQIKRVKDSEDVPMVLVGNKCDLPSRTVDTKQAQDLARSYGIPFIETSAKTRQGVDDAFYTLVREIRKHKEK
Sequence of KRAS G13D (P62937 whole entry): as the sequence (P62937 whole entry) above
Sequence of NRAS Q61K (P01111 whole entry Q61K): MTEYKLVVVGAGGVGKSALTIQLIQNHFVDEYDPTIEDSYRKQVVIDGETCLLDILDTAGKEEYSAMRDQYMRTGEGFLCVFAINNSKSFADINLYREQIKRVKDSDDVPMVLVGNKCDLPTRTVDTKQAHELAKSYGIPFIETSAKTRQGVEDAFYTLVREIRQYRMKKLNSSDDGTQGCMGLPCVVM
Sequence of NRAS Q61K (P62937 whole entry): as the sequence (P62937 whole entry) above

Structure (SMILES)	EC50 ([1]; Homo sapiens, NCI-H358) [nM]	IC50 (K-Ras G12C)	IC50 (KRAS G12S)	IC50 (KRAS WT)	IC50 (KRAS G13D)	IC50 (KRAS Q61H) [nM]	IC50 (NRAS Q61K) [nM]	EC50 [1] [nM]
C=CC(=O)N1CC[C@H](C(=O)N(C)[C@H](C(=O)N[C@H]2Cc3cc(O)cc(c3)-c3ccc4c(c3)c(c(-c3cccnc3[C@H](CC)OC)n4CC)CC(C)(C)COC(=O)[C@@H]3CCCN(N3)C2=O)C(C)C)C1 (atropisomer, axis not shown) [Example A181]	< 5000	10 to 100 nM and 100 to 1000 nM	1000 to 10000 nM and 10 to 100 nM	100 to 1000 nM and 1000 to 10000 nM	100 to 1000 nM and 1000 to 10000 nM	10 to 100	100 to 1000	
C=CC(=O)N1CC[C@H](C(=O)N(C)[C@H](C(=O)N[C@H]2Cc3nc(ns3)-c3ccc4c(c3)c(c(-c3cccnc3[C@H](C)OC)n4CC)CC(C)(C)COC(=O)[C@@H]3CCCN(N3)C2=O)C(C)C)C1 (atropisomer, axis not shown) [Example A202]	< 5000	1000 to 10000 nM	1000 to 10000 nM	> 10000 nM	> 10000 nM	1000 to 10000	1000 to 10000	
C=CC(=O)N1CC[C@H](C(=O)N(C)[C@H](C(=O)N[C@H]2Cc3cc(O)cc(c3)-c3ccc4c(c3)c(c(-c3cccnc3[C@@H](OC)C3CC3)n4CC)CC(C)(C)COC(=O)[C@@H]3CCCN(N3)C2=O)C(C)C)C1 (atropisomer, axis not shown) [Example A207]		10 to 100 nM	100 to 1000 nM	100 to 1000 nM	100 to 1000 nM	10 to 100	100 to 1000	< 5000
C=CC(=O)N1CC[C@H](C(=O)N(C)[C@H](C(=O)N[C@H]2Cc3cc(O)cc(c3)-c3ccc4c(c3)c(c(-c3cccnc3[C@@H]3CCCO3)n4CC)CC(C)(C)COC(=O)[C@@H]3CCCN(N3)C2=O)C(C)C)C1 (atropisomer, axis not shown) [Example A281]	< 5000	10 to 100 nM and 100 to 1000 nM	100 to 1000 nM	100 to 1000 nM	100 to 1000 nM	10 to 100	100 to 1000	
C=CC(=O)N1CC[C@H](C(=O)N(C)[C@H](C(=O)N[C@H]2Cc3nc(n(C)n3)-c3ccc4c(c3)c(c(-c3cccnc3[C@H](C)OC)n4CC)CC(C)(C)COC(=O)[C@@H]3CCCN(N3)C2=O)C(C)C)C1 (atropisomer, axis not shown) [Example A314]	< 5000	100 to 1000 nM	1000 to 10000 nM	1000 to 10000 nM	1000 to 10000 nM	100 to 1000	100 to 1000	
C=CC(=O)N1CC[C@H](C(=O)N(C)[C@H](C(=O)N[C@H]2Cc3csc(n3)-c3ccc4c(c3)c(c(-c3cccnc3[C@H](C)OC)n4CC)CC(C)(C)COC(=O)[C@@H]3CCCN(N3)C2=O)C(C)C)C1 (atropisomer, axis not shown) [Example A330]	< 5000	100 to 1000 nM	1000 to 10000 nM	1000 to 10000 nM	1000 to 10000 nM	100 to 1000	100 to 1000	
C=CC(=O)N1CC[C@]2(C1)CN(C(=O)N(C)[C@H](C(=O)N[C@H]1Cc3nc(cs3)-c3ccc4c(c3)c(c(-c3cccnc3[C@H](C)OC)n4CC)CC(C)(C)COC(=O)[C@@H]3CCCN(N3)C1=O)C(C)C)CCO2 (atropisomer, axis not shown) [Example A354]	< 5000	100 to 1000 nM	100 to 1000 nM	100 to 1000 nM	100 to 1000 nM	10 to 100	10 to 100	
C=CC(=O)N1CC[C@@]2(C1)OCN([C@H](C(=O)N[C@H]1Cc3cccc(c3)-c3ccc4c(c3)c(c(-c3cccnc3[C@H](C)OC)n4CC)CC(C)(C)COC(=O)[C@@H]3CCCN(N3)C1=O)C(C)C)C2=O (atropisomer, axis not shown) [Example A358]	< 5000	100 to 1000 nM	1000 to 10000 nM	100 to 1000 nM	1000 to 10000 nM	100 to 1000	1000 to 10000	
CO[C@@H](C)c1ncccc1-c1c2c3cc(ccc3n1CC(F)(F)F)-c1csc(n1)C[C@H](NC(=O)CCOC1CN(C(=O)C#CC(C)(C)N3CCC3)C1)C(=O)N1CCC[C@H](N1)C(=O)OCC(C)(C)C2 (atropisomer, axis not shown) [Example A363]	< 5000	10 to 100 nM	1000 to 10000 nM	1000 to 10000 nM	1000 to 10000 nM	1000 to 10000	1000 to 10000	
